From patent US20250002471A1 (Gilead Sciences, Inc., priority 2020, published 2025) come the findings set out here.

The structures appear in SMILES notation.

One experiment concerns the target T1, TLR9 (Homo sapiens, UniProt Q9NR96).
T1 construct: lymphocytes, monocytes and dendritic cells that express TLR7, TLR8 and TLR9; endogenous in cells; host or cells: human PBMCs from healthy donors
T1 sequence (Q9NR96 26-1032): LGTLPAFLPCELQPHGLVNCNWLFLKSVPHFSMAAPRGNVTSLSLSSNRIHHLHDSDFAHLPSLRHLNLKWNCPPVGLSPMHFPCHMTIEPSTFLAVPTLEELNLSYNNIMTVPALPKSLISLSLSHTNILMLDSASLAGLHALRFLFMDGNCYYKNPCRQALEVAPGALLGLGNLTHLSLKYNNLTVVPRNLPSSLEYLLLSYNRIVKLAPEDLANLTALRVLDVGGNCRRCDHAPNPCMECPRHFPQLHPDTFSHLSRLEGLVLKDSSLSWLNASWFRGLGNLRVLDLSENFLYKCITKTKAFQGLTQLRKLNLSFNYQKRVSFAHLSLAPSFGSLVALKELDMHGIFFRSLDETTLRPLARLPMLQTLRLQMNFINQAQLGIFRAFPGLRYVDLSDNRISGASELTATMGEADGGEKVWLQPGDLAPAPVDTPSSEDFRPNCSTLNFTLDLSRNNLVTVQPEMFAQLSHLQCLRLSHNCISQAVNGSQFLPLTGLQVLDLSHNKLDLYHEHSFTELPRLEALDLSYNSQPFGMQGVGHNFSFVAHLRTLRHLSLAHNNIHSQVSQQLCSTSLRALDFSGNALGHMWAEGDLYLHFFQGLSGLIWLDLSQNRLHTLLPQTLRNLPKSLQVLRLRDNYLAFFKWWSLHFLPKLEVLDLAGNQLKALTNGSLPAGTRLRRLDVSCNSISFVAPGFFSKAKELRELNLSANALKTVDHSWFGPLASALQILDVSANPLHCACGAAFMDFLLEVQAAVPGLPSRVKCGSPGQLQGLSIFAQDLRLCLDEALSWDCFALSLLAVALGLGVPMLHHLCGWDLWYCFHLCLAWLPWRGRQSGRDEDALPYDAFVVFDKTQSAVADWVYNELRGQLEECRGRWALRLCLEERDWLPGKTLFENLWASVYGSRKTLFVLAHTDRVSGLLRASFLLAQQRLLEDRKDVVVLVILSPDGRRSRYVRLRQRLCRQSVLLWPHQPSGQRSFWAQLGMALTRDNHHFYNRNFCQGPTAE
Kind of experiment: Human PBMC cell-based assay, TLR9 agonist ODN-2216 stimulation, cytokine (IL-6 and IFNα) readout. Conditions: human PBMCs, ODN-2216 3 μM, 6 hours; Table 26; read-out: TLR-9 EC50. The source says:
(§1) Human peripheral blood mononuclear cells (PBMCs) consist of lymphocytes, monocytes and dendritic cells that express TLR7, TLR8 and TLR9. These cells respond to TLR7, TLR8 and TLR9 ligand stimulation and produce cytokines and chemokines in vitro and in vivo. Human PBMCs are therefore suitable to be used in a cell-based assay to assess the in vitro potency of a TLR 7, 8, and/or 9 antagonist. The result is expected to be more translatable to the pharmacodynamics response in vivo than cell line-based assays.
(§2) Cryopreserved human PBMCs from healthy donors were thawed and resuspended in RPMI-1640 media with L-glutamine (Corning) supplemented with 10% Fetal Bovine Serum (Hyclone) and 1X Penicillin-Streptomycin (Corning). After counting, the cell density was adjusted to 2 million cells/ml and incubated for 1 hour at 37° C., 5% CO2 for recovery. Following the recovery, the cells were plated by adding 50p per well (100,000 cells) to 384-well cell culture plates (Greiner) containing 250nl of test antagonists in 100% DMSO per well, in a 10 points dose response in quadruplicates. PBMCs were incubated in the presence of test antagonists for one hour at 37° C., 5% CO2 before being stimulated with a TLR7 or TLR9 agonist. GS-986 (Gilead Sciences) was used as the TLR7 agonist at a final concentration of 400 nM. ODN-2216 (InvivoGen) was used as the TLR9 agonist at a final concentration of 3μM. PBMCs were incubated in the presence of the test antagonist and the TLR7 (or TLR9) agonist for an additional 6 hours at 37° C., 5% CO2. At the end of the incubation, the cell culture plates were centrifuged at 500 g for 5 min, and the cell culture supernatant was collected. The level of cytokines (IL-6 and IFNα) in the supernatant was measured by electrochemiluminescence immunoassays (Mesoscale Discovery) following manufacturer's recommended protocols. The level of cytokine measured was plotted against the test antagonist concentration and fitted to a sigmoidal function to determine the EC50, which are shown below in Table 26.

For the next experiment, the target named is T2, TLR7 (Homo sapiens, UniProt Q9NYK1).
T2 construct: lymphocytes, monocytes and dendritic cells that express TLR7, TLR8 and TLR9; endogenous in cells; host or cells: human PBMCs from healthy donors
T2 sequence (Q9NYK1 27-1049): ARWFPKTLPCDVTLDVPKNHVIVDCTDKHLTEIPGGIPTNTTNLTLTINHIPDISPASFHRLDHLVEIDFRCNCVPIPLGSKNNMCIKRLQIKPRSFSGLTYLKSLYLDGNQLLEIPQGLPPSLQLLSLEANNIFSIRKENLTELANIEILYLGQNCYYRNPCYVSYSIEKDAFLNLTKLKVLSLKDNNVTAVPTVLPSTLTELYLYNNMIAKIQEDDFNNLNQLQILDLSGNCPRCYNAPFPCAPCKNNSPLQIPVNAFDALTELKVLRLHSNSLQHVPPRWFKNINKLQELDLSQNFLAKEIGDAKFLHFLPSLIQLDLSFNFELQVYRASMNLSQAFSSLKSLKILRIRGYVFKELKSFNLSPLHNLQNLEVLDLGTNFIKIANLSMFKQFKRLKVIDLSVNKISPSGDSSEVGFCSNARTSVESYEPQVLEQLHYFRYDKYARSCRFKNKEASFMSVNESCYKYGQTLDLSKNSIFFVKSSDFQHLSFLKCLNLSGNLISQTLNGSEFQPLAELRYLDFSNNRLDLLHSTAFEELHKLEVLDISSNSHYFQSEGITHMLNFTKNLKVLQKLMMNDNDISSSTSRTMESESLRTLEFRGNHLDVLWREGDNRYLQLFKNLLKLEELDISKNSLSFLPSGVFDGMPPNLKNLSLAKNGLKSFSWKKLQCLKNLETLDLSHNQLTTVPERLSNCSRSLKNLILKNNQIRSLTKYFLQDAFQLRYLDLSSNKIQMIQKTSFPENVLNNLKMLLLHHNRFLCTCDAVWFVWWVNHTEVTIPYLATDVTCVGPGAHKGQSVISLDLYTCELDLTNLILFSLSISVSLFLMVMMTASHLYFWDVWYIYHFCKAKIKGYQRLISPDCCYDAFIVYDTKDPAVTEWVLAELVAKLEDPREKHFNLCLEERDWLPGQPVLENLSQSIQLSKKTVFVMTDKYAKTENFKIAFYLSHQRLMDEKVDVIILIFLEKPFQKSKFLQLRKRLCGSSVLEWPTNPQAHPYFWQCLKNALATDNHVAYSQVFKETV
Kind of experiment: Human PBMC cell-based assay, TLR7 agonist GS-986 stimulation, cytokine (IL-6 and IFNα) readout. Conditions: human PBMCs, GS-986 400 nM, 6 hours; Table 26; read-out: TLR-7 EC50.
Description: as §1, §2

Take `Cc1cc(-c2[nH]c3cc(-c4ccc5c(c4)CNC5)ccc3c2C)cc(C)n1` [Example 15]: the EC50 – broadly, the concentration giving half of the maximal effect – at TLR9 was found to be 55.6 nM; at TLR7, 53.6 nM.

For `Cc1cc(-c2[nH]c3cc(-c4cnn(CCN)c4)ccc3c2C)cc(C)n1` [Example 16], the EC50 at TLR9 stood at 275 nM; on TLR7 it was 254 nM.

In the case of `Cc1cc(-c2[nH]c3cc(-c4cnn(C5CCNC5)c4)ccc3c2C)cc(C)n1` (centres unmarked) [Example 17], the EC50 at TLR9 was 73.6 nM; on TLR7 it was 124 nM.

Turning to `Cc1cc(-c2[nH]c3cc(-c4cnn(C5CCCNC5)c4)ccc3c2C)cc(C)n1` (centres unmarked) [Example 18], the EC50 at TLR9 worked out at 87.6 nM; at TLR7, 89.9 nM.

On to `Cc1cc(-c2[nH]c3cc(-c4cccc5c4CNC5)ccc3c2C)cc(C)n1` [Example 19], for which the EC50 on TLR9 turned out to be 109 nM; at TLR7 it was 163 nM.

On to `Cc1cc(-c2[nH]c3cc(-c4ccc5c(c4)CC(N)C5)ccc3c2C)cc(C)n1` (centres unmarked) [Example 20], for which the EC50 amounted to 88.5 nM on TLR9 and 119 nM on TLR7.

As to `Cc1cc(-c2[nH]c3cc(-c4ccc(N5CCC(N)CC5)nc4)ccc3c2C)cc(C)n1` [Example 21, 1-(5-(2-(2,6-dimethylpyridin-4-yl)-3-methyl-1H-indol-6-yl)pyridin-2-yl)piperidin-4-amine], the concentration for a half-maximal effect (EC50) was found to be 28.3 nM at TLR9 and 8.6 nM on TLR7.

As for `Cc1cc(-c2[nH]c3cc(-c4ccc(N5CCNC6(CC6)C5)nc4)ccc3c2C)cc(C)n1` [Example 22, 6-(6-(4,7-diazaspiro[2.5]octan-7-yl)pyridin-3-yl)-2-(2,6-dimethylpyridin-4-yl)-3-methyl-1H-indole], the values for the EC50 at TLR9 and at TLR7 were 153 nM and 64.4 nM, respectively.

On to `Cc1cc(-c2[nH]c3cc(-c4ccc(NC5CCNCC5)nc4)ccc3c2C)cc(C)n1` [Example 24], for which the EC50 at TLR9 came out at 89.6 nM; at TLR7, 8.3 nM.

Consider `Cc1cc(-c2[nH]c3cc(-c4ccc(N5CCC[C@@H](N)C5)nc4)ccc3c2C)cc(C)n1` [Example 25], for which the EC50 turned out to be 39.1 nM on TLR9 and 5.9 nM on TLR7.

Turning to `Cc1cc(-c2[nH]c3cc(-c4ccc(N5CCC[C@H](N)C5)nc4)ccc3c2C)cc(C)n1` [Example 26], the EC50 at TLR9 was 40.2 nM; at TLR7, 31 nM.

As for `Cc1cc(-c2[nH]c3cc(-c4ccc(N5C[C@H]6CC[C@@H](C5)[C@H]6N)nc4)ccc3c2C)cc(C)n1` [Example 27], the figures for the EC50 at TLR9 and on TLR7 were 55.2 nM and 196 nM, respectively.

`Cc1cc(-c2[nH]c3cc(-c4ccc(N5C[C@H]6CC[C@@H](C5)[C@@H]6N)nc4)ccc3c2C)cc(C)n1` [Example 28]: the values for the EC50 at TLR9 and at TLR7 were 69.9 nM and 63 nM, respectively.

`Cc1cc(-c2[nH]c3cc(-c4ccc(N5CC6(CNCCO6)C5)nc4)ccc3c2C)cc(C)n1` [Example 29]: the EC50 on TLR9 is 122 nM; on TLR7 it was 31.6 nM.

On to `CNCCN(C)c1ccc(-c2ccc3c(C)c(-c4cc(C)nc(C)c4)[nH]c3c2)cn1` [Example 30], for which the EC50 on TLR9 came out at 55.8 nM; at TLR7, 24.1 nM.

As to `Cc1cc(-c2[nH]c3cc(-c4ccc(N5CC[C@@H](N)C5)nc4)ccc3c2C)cc(C)n1` [Example 31], the EC50 came out at 13.5 nM on TLR9 and 8.3 nM on TLR7.

Take `Cc1cc(-c2[nH]c3cc(-c4ccc(N5CC[C@H](N)C5)nc4)ccc3c2C)cc(C)n1` [Example 32]: the EC50 at TLR9 turned out to be 37.3 nM; on TLR7, 17.7 nM.

`Cc1cc(-c2[nH]c3cc(-c4ccc(N5CC[C@H]6CNC[C@H]65)nc4)ccc3c2C)cc(C)n1` [Example 33]: the EC50 at TLR9 stood at 79.9 nM; on TLR7, 51 nM.

As for `Cc1cc(-c2[nH]c3cc(-c4ccc(N5CC6CNCC6C5)nc4)ccc3c2C)cc(C)n1` (centres unmarked) [Example 34], the EC50 at TLR9 turned out to be 83.4 nM; at TLR7, 17.7 nM.

Regarding `Cc1cc(-c2[nH]c3cc(-c4ccc(N5CCN(C6COC6)CC5)nc4)ccc3c2C)cc(C)n1` [Example 38], the EC50 on TLR9 was found to be 382 nM; at TLR7, 273 nM.

Consider `Cc1cc(-c2[nH]c3cc(-c4ccc(N5CCN(CCO)C(=O)C5)nc4)ccc3c2C)cc(C)n1` [Example 39], for which the EC50 on TLR9 was determined as 310 nM; at TLR7, 26.4 nM.

Take `Cc1cc(-c2[nH]c3cc(-c4ccc(N5CCN(C)CC5)nc4)ccc3c2C)cc(C)n1` [Example 41, 2-(2,6-dimethylpyridin-4-yl)-3-methyl-6-(6-(4-methylpiperazin-1-yl)pyridin-3-yl)-1H-indole]: the EC50 on TLR9 stood at 69.6 nM; at TLR7, 12.9 nM.

Turning to `Cc1cc(-c2[nH]c3cc(-c4ccc(S(=O)(=O)C5CCNCC5)cc4)ccc3c2C)cc(C)n1` [Example 42], the results for the EC50 at TLR9 and at TLR7 were 106 nM and 150 nM, respectively.

With `Cc1cc(-c2[nH]c3cc(-c4ccc5[nH]cnc5c4)ccc3c2C)cc(C)n1` [Example 44], the 50% effective concentration (EC50) was 242 nM at TLR9 and 121 nM at TLR7.

For the compound `Cc1cc(-c2[nH]c3cc(-c4cnc5[nH]c(C)nc5c4)ccc3c2C)cc(C)n1` [Example 45], the results for the EC50 at TLR9 and on TLR7 were 621 nM and 331 nM, respectively.

With `Cc1cc(-c2[nH]c3cc(-c4cnc5c(c4)ncn5C)ccc3c2C)cc(C)n1` [Example 46], the values for the EC50 on TLR9 and on TLR7 were 1070 nM and 183 nM, respectively.

With `Cc1cc(-c2[nH]c3cc(-c4ccc5cccnc5c4)ccc3c2C)cc(C)n1` [Example 47], the EC50 on TLR9 was determined as 400 nM; at TLR7, 652 nM.

Regarding `CCc1c(-c2cc(C)nc(C)c2)[nH]c2cc(C3CCNCC3)ccc12` [Example 49, 2-(2,6-dimethylpyridin-4-yl)-3-ethyl-6-(piperidin-4-yl)-1H-indole], the EC50 on TLR9 was 358 nM; at TLR7, 549 nM.
